Test results published in ChEMBL document CHEMBL1152639, “Design, synthesis and nootropic activity of new analogues of sunifiram and sapunifiram, two potent cognition-enhancers” (Bioorg Med Chem, 2009).
Calls of active or inactive are those of the source. The rule behind the calls is not given here.

How the values were obtained:
Mus musculus [1] = assay: Procognitive effect in ip dosed mouse assessed as inhibition of memory deficit by passive-avoidance test; type: functional; conditions: read-out: MED
Mus musculus [2] = assay: Antiamnesic activity against scopolamine-induced amnesia in ip dosed mouse by passive-avoidance test; type: functional; conditions: read-out: MED
Mus musculus [3] = assay: Ratio of MED for drug to MED for piracetam against scopolamine-induced amnesia in ip dosed mouse by passive-avoidance test; type: functional
Mus musculus [4] = assay: Toxicity in ip dosed mouse assessed as change in gross behavior; type: organism-based; conditions: in vivo
Mus musculus [5] = assay: Effect on spontaneous motility in ip dosed mouse by hole-board test; type: functional, organism-based
Mus musculus [6] = assay: Effect on inspection activity in ip dosed mouse by hole-board test; type: functional, organism-based
Mus musculus [7] = assay: Toxicity in ip dosed mouse assessed as change motor coordination by rota rod test; type: organism-based; conditions: in vivo

| SMILES | minimal effective dose (Mus musculus [2]) | Ratio (Mus musculus [3]) | further results |
| --- | --- | --- | --- |
| CCC(=O)N1CCCN(C(=O)c2ccccc2)CC1 | 0.1 mg/kg | 30 | minimal effective dose (Mus musculus [1]): 1 mg/kg |
| CC(=O)N1CCCN(C(=O)c2ccccc2)CC1 | 0.01 mg/kg | 30 | minimal effective dose (Mus musculus [1]): 1 mg/kg |
| NC(=O)CN1CCCC1=O [PIRACETAM] | 30 mg/kg |  | Activity (Mus musculus [4]): Non-toxic; Activity (Mus musculus [5]): inactive; Activity (Mus musculus [6]): inactive; Activity (Mus musculus [7]): Non-toxic |
| CCCS(=O)(=O)N1CCN(C(=O)CC)CC1 | 1 mg/kg | 30 |  |
| CC(=O)N1CCCN(C(=O)c2ccccc2)C1 | 1 mg/kg |  |  |
| CCC(=O)N1CCN(S(=O)(=O)c2ccc(F)cc2)CC1 | 0.01 mg/kg | 30 |  |
| CC(=O)N1CCCN(S(=O)(=O)c2ccc(F)cc2)CC1 | 1 mg/kg | 30 | minimal effective dose (Mus musculus [1]): 10 mg/kg |
| CCCS(=O)(=O)N1CCN(C(=O)CC)C1 | > 10 mg/kg |  |  |
| CC(=O)N1CCN(C(=O)c2ccccc2)C1 | 1 mg/kg |  |  |
| CCC(=O)N1CCN(C(=O)CC)CC1 | > 10 mg/kg |  |  |
| CC(=O)N1CCN(C(=O)c2ccccc2)CC1 | 10 mg/kg | 30 |  |
| CCCS(=O)(=O)N1CCCN(C(C)=O)CC1 | > 10 mg/kg | 30 |  |
| CCCS(=O)(=O)N1CCCN(C(C)=O)C1 | 1 mg/kg |  |  |
| CCC(=O)N1CCCN(S(=O)(=O)c2ccc(F)cc2)CC1 | 1 mg/kg | 30 | minimal effective dose (Mus musculus [1]): 10 mg/kg |
| CCCS(=O)(=O)N1CCCN(C(=O)CC)CC1 | > 10 mg/kg | 30 |  |
| CC(=O)N1CCCN(S(=O)(=O)c2ccc(F)cc2)C1 | 1 mg/kg |  |  |
| CCC(=O)N1CCCN(C(=O)c2ccccc2)C1 | 1 mg/kg |  |  |
| CCC(=O)N1CCCN(S(=O)(=O)c2ccc(F)cc2)C1 | 1 mg/kg |  |  |
| CCC(=O)N1CCN(C(=O)c2ccccc2)CC1 [SUNIFIRAM] | 0.001 mg/kg | 30 | Activity (Mus musculus [4]): Non-toxic; Activity (Mus musculus [5]): inactive; minimal effective dose (Mus musculus [1]): 0.01 mg/kg; Activity (Mus musculus [6]): inactive; Activity (Mus musculus [7]): Non-toxic |

| SMILES | minimal effective dose (Mus musculus [2]) | Ratio (Mus musculus [3]) | further results |
| --- | --- | --- | --- |
| CCC(=O)N1CCN(C(=O)Oc2ccccc2)CC1 | 10 mg/kg |  |  |
| CCNC(=O)C1CCN(S(=O)(=O)c2ccc(F)cc2)CC1 | 1 mg/kg |  |  |
| CC(=O)N1CCN(S(=O)(=O)c2ccc(F)cc2)CC1 | 0.01 mg/kg | 30 |  |
| CC(=O)N1CCCN(C(=O)Cc2ccccc2)CC1 | 0.01 mg/kg | 30 | minimal effective dose (Mus musculus [1]): 1 mg/kg |
| CCC(=O)N1CCC(NC(C)=O)CC1 | > 10 mg/kg |  |  |
| CCCS(=O)(=O)N1CCN(C(C)=O)C1 | 10 mg/kg |  |  |
| CC(=O)NC1CCN(S(=O)(=O)c2ccc(F)cc2)CC1 [SAPUNIFIRAM] | 0.01 mg/kg |  | Activity (Mus musculus [4]): Non-toxic; Activity (Mus musculus [5]): inactive; minimal effective dose (Mus musculus [1]): 0.1 mg/kg; Activity (Mus musculus [6]): inactive; Activity (Mus musculus [7]): Non-toxic |
| CCC(=O)N1CCN(C(=O)Nc2ccccc2)CC1 | > 10 mg/kg |  |  |
| CC(=O)N1CCN(S(=O)(=O)c2ccc(F)cc2)C1 | 1 mg/kg |  |  |
| CNC(=O)C1CCN(S(=O)(=O)c2ccc(F)cc2)CC1 | 0.1 mg/kg |  | minimal effective dose (Mus musculus [1]): 1 mg/kg |
| CCCS(=O)(=O)N1CCCN(C(=O)CC)C1 | > 10 mg/kg |  |  |
| CCC(=O)N1CCN(C(=O)c2ccccc2)C1 | 1 mg/kg |  |  |
| CCC(=O)N1CCN(C(=O)Cc2ccccc2)CC1 | 1 mg/kg |  |  |
| CCC(=O)NC1CCN(C(C)=O)CC1 | 10 mg/kg |  |  |
| CC(=O)NC(=O)C1CCN(S(=O)(=O)c2ccc(F)cc2)CC1 | 1 mg/kg |  |  |
| CCC(=O)N1CCN(S(=O)(=O)c2ccc(F)cc2)C1 | 1 mg/kg |  |  |
| CCC(=O)N1CCN(C(C)=O)CC1 | 10 mg/kg |  |  |
| CCCS(=O)(=O)N1CCN(C(C)=O)CC1 | 0.1 mg/kg | 30 |  |
